The assay addresses human PAD4 (hPAD4) (Homo sapiens (Human), UniProt Q9UM07). Nature of the assay: RFMS Human PAD4 Functional Assay 1. Format: biochemical. The settings on record: RFMS assay 1; 5 nM hPAD4, 250 μM BAEE substrate, 50 μM calcium, 37° C. The method, boiled down: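 Recombinant hPAD4 (5 nM) was preincubated with compound (top 50 μM, 0.5% DMSO) for 30 min at 37 °C, then reacted with 250 μM BAEE for 90 min at 37 °C in pH 7.5 HEPES buffer with 50 μM calcium and 5 μM TPEN. Product was derivatized with phenyl glyoxal and quantified by RapidFire MS.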
human PAD4 (hPAD4), sequence (Q9UM07 whole entry): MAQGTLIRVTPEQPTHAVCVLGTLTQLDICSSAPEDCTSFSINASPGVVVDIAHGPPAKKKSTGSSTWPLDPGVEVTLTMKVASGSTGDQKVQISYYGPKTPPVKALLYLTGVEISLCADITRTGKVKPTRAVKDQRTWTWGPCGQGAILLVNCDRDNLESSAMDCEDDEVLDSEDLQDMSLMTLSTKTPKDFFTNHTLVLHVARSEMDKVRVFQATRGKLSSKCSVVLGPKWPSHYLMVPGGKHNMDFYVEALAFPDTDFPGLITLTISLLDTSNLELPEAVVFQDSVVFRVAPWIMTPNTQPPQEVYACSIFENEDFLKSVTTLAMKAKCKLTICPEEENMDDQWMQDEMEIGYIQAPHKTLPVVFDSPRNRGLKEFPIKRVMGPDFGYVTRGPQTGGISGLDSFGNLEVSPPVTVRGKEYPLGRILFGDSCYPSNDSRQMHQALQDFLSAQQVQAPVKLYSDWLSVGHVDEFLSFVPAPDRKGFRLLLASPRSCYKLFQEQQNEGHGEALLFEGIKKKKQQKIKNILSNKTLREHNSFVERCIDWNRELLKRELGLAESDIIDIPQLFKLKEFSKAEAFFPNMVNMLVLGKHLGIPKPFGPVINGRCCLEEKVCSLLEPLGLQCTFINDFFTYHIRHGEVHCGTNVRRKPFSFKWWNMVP
As for `Cc1c(-c2cc3ccc(-c4ccc5c(c4)C(=O)NC5)cc3n2CC2CC2)oc2cc(C(=O)N3CC4CCC3[C@@H]4N)ccc12` (stereo partly drawn) [Example 177, 6-(2-(6-((7R)-7-Amino-2-azabicyclo[2.2.1]heptane-2-carbonyl)-3-methylbenzofuran-2-yl)-1-(cyclopropylmethyl)-1H-indol-6-yl)isoindolin-1-one], the 50% inhibitory concentration (IC50) was 69 nM. Consider `Cc1c(-c2cc3ccc(-c4ccc5c(c4)CNC5=O)cc3n2CC2CC2)oc2cc(C(=O)N3CC4CCC3[C@@H]4N)ccc12` (stereo partly drawn) [Example 178, 5-(2-(6-((7R)-7-Amino-2-azabicyclo[2.2.1]heptane-2-carbonyl)-3-methylbenzofuran-2-yl)-1-(cyclopropylmethyl)-1H-indol-6-yl)isoindolin-1-one], for which the IC50 came out at 153 nM. In the case of `Cc1c(-c2cc3ccc(-c4ccn5c(C)nnc5c4)cc3n2CC2CC2)oc2cc(C(=O)N3CC4CCC3[C@@H]4N)ccc12` (stereo partly drawn) [Example 179, ((7R)-7-Amino-2-azabicyclo[2.2.1]heptan-2-yl)(2-(1-(cyclopropylmethyl)-6-(3-methyl-[1,2,4]triazolo[4,3-a]pyridin-7-yl)-1H-indol-2-yl)-3-methylbenzofuran-6-yl)methanone] it was 35 nM; in that of `Cc1c(-c2cc3ccc(-c4cnn(C(C)C)c4)cc3n2CC2CC2)oc2cc(C(=O)N3CC4CCC3[C@@H]4N)ccc12` (stereo partly drawn) [Example 180, ((7R)-7-Amino-2-azabicyclo[2.2.1]heptan-2-yl)(2-(1-(cyclopropylmethyl)-6-(1-isopropyl-1H-pyrazol-4-yl)-1H-indol-2-yl)-3-methylbenzofuran-6-yl)methanone], 220 nM. With `Cc1c(-c2cc3ccc(-c4cccc(O)c4F)cc3n2CC2CC2)oc2cc(C(=O)N3CC4CCC3[C@@H]4N)ccc12` (stereo partly drawn) [Example 181, ((7R)-7-Amino-2-azabicyclo[2.2.1]heptan-2-yl)(2-(1-(cyclopropylmethyl)-6-(2-fluoro-3-hydroxyphenyl)-1H-indol-2-yl)-3-methylbenzofuran-6-yl)methanone], the IC50 is 269 nM. Take `Cc1c(-c2cc3ccc(-c4ccc(O)c(F)c4)cc3n2CC2CC2)oc2cc(C(=O)N3CC4CCC3[C@@H]4N)ccc12` (stereo partly drawn) [Example 182, ((7R)-7-Amino-2-azabicyclo[2.2.1]heptan-2-yl)(2-(1-(cyclopropylmethyl)-6-(3-fluoro-4-hydroxyphenyl)-1H-indol-2-yl)-3-methylbenzofuran-6-yl)methanone]: the IC50 was 923 nM. As to `Cc1c(-c2cc3ccc(-c4ccc(C(N)=O)c(Cl)c4)cc3n2CC2CC2)oc2cc(C(=O)N3CC4CCC3[C@@H]4N)ccc12` (stereo partly drawn) [Example 183, 4-(2-(6-((7R)-7-Amino-2-azabicyclo[2.2.1]heptane-2-carbonyl)-3-methylbenzofuran-2-yl)-1-(cyclopropylmethyl)-1H-indol-6-yl)-2-chlorobenzamide], the half-maximal inhibitory concentration (IC50) is 88 nM. With `Cc1ccc2cc(-c3oc4cc(C(=O)N5CC6CCC5[C@@H]6N)ccc4c3C)n(CC3CC3)c2c1` (stereo partly drawn) [Example 184, ((7R)-7-Amino-2-azabicyclo[2.2.1]heptan-2-yl)(2-(1-(cyclopropylmethyl)-6-methyl-1H-indol-2-yl)-3-methylbenzofuran-6-yl)methanone], the IC50 came out at 50 nM. Then `Cc1c(-c2cc3ccc(-c4ccc(C(N)=O)c(F)c4)cc3n2CC2CC2)oc2cc(C(=O)N3CC4CCC3[C@@H]4N)ccc12` (stereo partly drawn) [Example 185, 4-(2-(6-((7R)-7-Amino-2-azabicyclo[2.2.1]heptane-2-carbonyl)-3-methylbenzofuran-2-yl)-1-(cyclopropylmethyl)-1H-indol-6-yl)-2-fluorobenzamide], with 25 nM; and `COc1cc(-c2ccc3cc(-c4oc5cc(C(=O)N6CC7CCC6[C@@H]7N)ccc5c4C)n(CC4CC4)c3c2)ccn1` (stereo partly drawn) [Example 186, ((7R)-7-Amino-2-azabicyclo[2.2.1]heptan-2-yl)(2-(1-(cyclopropylmethyl)-6-(2-methoxypyridin-4-yl)-1H-indol-2-yl)-3-methylbenzofuran-6-yl)methanone], with 56 nM; and `Cc1c(-c2cc3ccc(C4CC4)cc3n2CC2CC2)oc2cc(C(=O)N3CC4CCC3[C@@H]4N)ccc12` (stereo partly drawn) [Example 187, ((7R)-7-Amino-2-azabicyclo[2.2.1]heptan-2-yl)(2-(6-cyclopropyl-1-(cyclopropylmethyl)-1H-indol-2-yl)-3-methylbenzofuran-6-yl)methanone], with 1550 nM. Consider `Cc1cc(-c2ccc3cc(-c4oc5cc(C(=O)N6CC7CCC6[C@@H]7N)ccc5c4C)n(CC4CC4)c3c2)cnc1C(N)=O` (stereo partly drawn) [Example 188, 5-(2-(6-((7R)-7-Amino-2-azabicyclo[2.2.1]heptane-2-carbonyl)-3-methylbenzofuran-2-yl)-1-(cyclopropylmethyl)-1H-indol-6-yl)-3-methylpicolinamide], for which the IC50 is 81 nM. As to `COC1CCN(c2ccc3cc(-c4oc5cc(C(=O)N6CC7CCC6[C@@H]7N)ccc5c4C)n(CC4CC4)c3c2)CC1` (stereo partly drawn) [Example 189, ((7R)-7-Amino-2-azabicyclo[2.2.1]heptan-2-yl)(2-(1-(cyclopropylmethyl)-6-(4-methoxypiperidin-1-yl)-1H-indol-2-yl)-3-methylbenzofuran-6-yl)methanone], the IC50 was found to be 30 nM. In the case of `COC1CN(c2ccc3cc(-c4oc5cc(C(=O)N6CC7CCC6[C@@H]7N)ccc5c4C)n(CC4CC4)c3c2)C1` (stereo partly drawn) [Example 190, ((7R)-7-Amino-2-azabicyclo[2.2.1]heptan-2-yl)(2-(1-(cyclopropylmethyl)-6-(3-methoxyazetidin-1-yl)-1H-indol-2-yl)-3-methylbenzofuran-6-yl)methanone] it was 58 nM.

Take `Cc1c(-c2cc3ccc(N4CCC(N)CC4)cc3n2CC2CC2)oc2cc(C(=O)N3CC4CCC3[C@@H]4N)ccc12` (stereo partly drawn) [Example 191, ((7R)-7-Amino-2-azabicyclo[2.2.1]heptan-2-yl)(2-(6-(4-aminopiperidin-1-yl)-1-(cyclopropylmethyl)-1H-indol-2-yl)-3-methylbenzofuran-6-yl)methanone]: the IC50 worked out at 20 nM. Then `Cc1c(-c2cc3ccc(N4CCNCC4)cc3n2CC2CC2)oc2cc(C(=O)N3CC4CCC3[C@@H]4N)ccc12` (stereo partly drawn) [Example 192, ((7R)-7-Amino-2-azabicyclo[2.2.1]heptan-2-yl)(2-(1-(cyclopropylmethyl)-6-(piperazin-1-yl)-1H-indol-2-yl)-3-methylbenzofuran-6-yl)methanone], with 93 nM; and `Cc1c(-c2cc3ccc(N4CCNCC4=O)cc3n2CC2CC2)oc2cc(C(=O)N3CC4CCC3[C@@H]4N)ccc12` (stereo partly drawn) [Example 193, 1-(2-(6-((7R)-7-Amino-2-azabicyclo[2.2.1]heptane-2-carbonyl)-3-methylbenzofuran-2-yl)-1-(cyclopropylmethyl)-1H-indol-6-yl)piperazin-2-one], with 334 nM; and `Cc1c(-c2cc3ccccc3n2CC2CC2)oc2cc(C(=O)N3C[C@H](N)C[C@@H](F)C3)ccc12` [Example 194, ((3R,5R)-3-Amino-5-fluoropiperidin-1-yl)(2-(1-(cyclopropylmethyl)-1H-indol-2-yl)-3-methylbenzofuran-6-yl)methanone], with 1800 nM. On to `Cc1c(-c2cc3ccc(-c4ccc5c(c4)CNC5=O)cc3n2CC2CC2)oc2cc(C(=O)N3C[C@H](N)C[C@@H](F)C3)ccc12` [Example 195, 5-(2-(6-((3R,5R)-3-Amino-5-fluoropiperidine-1-carbonyl)-3-methylbenzofuran-2-yl)-1-(cyclopropylmethyl)-1H-indol-6-yl)isoindolin-1-one], for which the concentration for half-maximal inhibition (IC50) stood at 363 nM. Turning to `Cc1c(-c2cc3ccc(-c4ccc(C(N)=O)c(F)c4)cc3n2CC2CC2)oc2cc(C(=O)N3C[C@H](N)C[C@@H](F)C3)ccc12` [Example 196, 4-(2-(6-((3R,5R)-3-Amino-5-fluoropiperidine-1-carbonyl)-3-methylbenzofuran-2-yl)-1-(cyclopropylmethyl)-1H-indol-6-yl)-2-fluorobenzamide], the IC50 worked out at 384 nM. In the case of `Cc1c(-c2cc3ccc(-c4ccn5c(C)nnc5c4)cc3n2CC2CC2)oc2cc(C(=O)N3C[C@H](N)C[C@@H](F)C3)ccc12` [Example 197, ((3R,5R)-3-Amino-5-fluoropiperidin-1-yl)(2-(1-(cyclopropylmethyl)-6-(3-methyl-[1,2,4]triazolo[4,3-a]pyridin-7-yl)-1H-indol-2-yl)-3-methylbenzofuran-6-yl)methanone] it was 317 nM. Then `Cc1c(-c2cc3ccc(-c4cccc(O)c4F)cc3n2CC2CC2)oc2cc(C(=O)N3C[C@H](N)C[C@@H](F)C3)ccc12` [Example 198, ((3R,5R)-3-Amino-5-fluoropiperidin-1-yl)(2-(1-(cyclopropylmethyl)-6-(2-fluoro-3-hydroxyphenyl)-1H-indol-2-yl)-3-methylbenzofuran-6-yl)methanone], with 3260 nM; and `Cc1c(-c2cc3ccc(-c4ccc(C(N)=O)c(Cl)c4)cc3n2CC2CC2)oc2cc(C(=O)N3C[C@H](N)C[C@@H](F)C3)ccc12` [Example 199, 4-(2-(6-((3R,5R)-3-Amino-5-fluoropiperidine-1-carbonyl)-3-methylbenzofuran-2-yl)-1-(cyclopropylmethyl)-1H-indol-6-yl)-2-chlorobenzamide], with 3360 nM; and `Cc1c(-c2cc3ccc(N4CCNCC4)cc3n2CC2CC2)oc2cc(C(=O)N3C[C@H](N)C[C@@H](F)C3)ccc12` [Example 201, ((3R,5R)-3-Amino-5-fluoropiperidin-1-yl)(2-(1-(cyclopropylmethyl)-6-(piperazin-1-yl)-1H-indol-2-yl)-3-methylbenzofuran-6-yl)methanone], with 1970 nM. Consider `Cc1c(-c2cc3ccc(N4CCC(N)CC4)cc3n2CC2CC2)oc2cc(C(=O)N3C[C@H](N)C[C@@H](F)C3)ccc12` [Example 202, ((3R,5R)-3-Amino-5-fluoropiperidin-1-yl)(2-(6-(4-aminopiperidin-1-yl)-1-(cyclopropylmethyl)-1H-indol-2-yl)-3-methylbenzofuran-6-yl)methanone], for which the IC50 turned out to be 1060 nM.

The values are drawn from patent US12473304B2, “Heterocyclic PAD4 inhibitors” (BRISTOL-MYERS SQUIBB COMPANY, priority 2020, dated 2025).
